# Measurements taken from patent US8916716B2, “Process for the preparation of crystalline form II of L-malic acid salt of sunitinib” (Ranbaxy Laboratories Limited, priority 2009, dated 2014).
# Key:
# [1] = Moisture content by KF, initial and after storage; type: physicochemical
# [2] = Solid form stability on storage, followed by XRPD; type: physicochemical; settings: storage for about 20 days or more
# Procedure: The XRPD of the samples were determined by using Panalytical X'Pert Pro X-Ray Powder Diffractometer in the range 3-40 degree 2 theta and under tube voltage and current of 45 Kv and 40 mA respectively. Copper radiation of wavelength 1.54 angstrom and Xceletor detector was used.
# The solvent was evaporated at a temperature of about 60° C. to about 65° C. through spray drying.
# [3] = described in WO 2009/104021; cited from earlier work
SMILES,Moisture content by KF ([1]; after storage at 20° C. to 25° C. for 60 days) [%],moisture absorbed (level) ([1]; general statement on the stable Form II),Moisture content by KF ([1]; initial) [%],conversion into any other solid form on storage [2],conversion to another crystal form [3],hygroscopicity [3],thermodynamic stability [3]
"CCN(CC)CCNC(=O)c1c(C)[nH]c(/C=C2\C(=O)Nc3ccc(F)cc32)c1C [Example 1, butanedioic acid, hydroxy-, (2S)—, compound with N-[2-(diethylamino)ethyl]-5-[(Z)-(5-fluoro-1,2-dihydro-2-oxo-3H-indol-3-ylidine)methyl]-2,4-dimethyl-1H-pyrrole-3-carboxamide (1:1)]",5.52,not more than 2%,4.48,does not convert into any other solid form,,,
"CCN(CC)CCNC(=O)c1c(C)[nH]c(/C=C2\C(=O)Nc3ccc(F)cc32)c1C [Form II of sunitinib L-malate, butanedioic acid, hydroxy-, (2S)—, compound with N-[2-(diethylamino)ethyl]-5-[(Z)-(5-fluoro-1,2-dihydro-2-oxo-3H-indol-3-ylidine)methyl]-2,4-dimethyl-1H-pyrrole-3-carboxamide (1:1)]",,,,,appears to readily convert to Form I,hygroscopic,thermodynamically unstable
